Reference: PubChem BioAssay AID2765 (Broad Institute, 2010)
pEC50: −log10 of the molar value. Active and inactive are the calls of the source.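 How the source made its calls: active means half-maximal concentration for the rise in caspase light signal at or below ten times the top tested dose; inconclusive means flat fit between 30% and 70% activity, or unreliable curve fit; inactive means the rest.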

What follows are compounds tested on MEF A1-2A-BIM cells, caspase 3/7 luminescence, 3 h (assay: caspase activation in A1-2A-BIM MEF cells, dose response, A1 inhibitor project, cell-based, luminescence, retest (AID 2765)).
In the case of `CCOC(=O)CS(=O)(=O)c1nc(-c2ccccc2)cc(C(F)(F)F)n1`, the EC50 was > 35 µM (inactive). In the case of `CCc1nnc(NC(=O)c2ccc(NC(=O)C(C)C)cc2)s1`, the EC50 was > 35 µM (inactive). For `CSc1ccccc1NC(=O)c1ccc(N2CC3CC(C2)c2cccc(=O)n2C3)c(NC(=O)c2cccnc2)c1` (stereo not drawn), the EC50 was > 35 µM (inactive). With `Cc1cc(/C=C(/C#N)C(=O)O)c(C)n1-c1cccc2ccccc12` the EC50 was > 35 µM (inactive). For `COc1cc2ncnc(NCc3ccc(F)cc3)c2cc1OC`, the EC50 was > 35 µM (inactive). For `COC(=O)c1cc(CNC(=O)CC(C)c2ccccc2)ccc1OC` (stereo not drawn), the EC50 was > 35 µM (inactive). In the case of `O=C(N/N=C/c1ccc(N2CCCCC2)o1)c1ccccc1[N+](=O)[O-]`, the EC50 was > 35 µM (inactive). For `Cc1csc(NC(=O)c2cccc(S(=O)(=O)N3CCN(C)CC3)c2)n1`, the EC50 was > 35 µM (inactive). For `COC(=O)C[C@H]1c2ccccc2S(=O)(=O)N1c1cccc(OC)c1`, the EC50 was > 35 µM (inactive). In the case of `Nc1nonc1-n1nnc(C(=O)N/N=C/c2ccc(Br)cc2)c1CN1CCOCC1`, the EC50 was > 35 µM (inactive). For `CCOc1ccc(Nc2cc(C)nc3nc(C)nn23)cc1`, the EC50 was > 35 µM (inactive). `O=C(NCCCNc1ccc(C(F)(F)F)cc1[N+](=O)[O-])c1ccc(F)cc1` was tested, and the EC50 was > 35 µM (inactive). `CO/N=C/C(C#N)=C/c1cc(C(=O)c2ccccc2)cn1C` was tested, and the EC50 was > 35 µM (inactive). `C#CCOCCOCCOCCNc1nc(N2CCN(C(=O)[C@H](CCCCN)n3cc(CCCC)nn3)CC2)nc(N2CCN(C(=O)[C@H](CCCCN)n3cc(CCC(=O)O)nn3)CC2)n1` was tested, and the EC50 was > 35 µM (inactive). `Cc1onc(-c2c(Cl)cccc2Cl)c1C(=O)N=S(C)(=O)c1ccccc1` (stereo not drawn) was tested, and the EC50 was > 35 µM (inactive). In the case of `COc1cc(/C=C/C(=O)c2ccc([N+](=O)[O-])o2)ccc1O`, the EC50 was > 35 µM (inactive). For `Cc1ncc([N+](=O)[O-])n1Cc1cccc2ccccc12`, the EC50 was > 35 µM (inactive). `CCOC(=O)N1CCN(C(=O)c2ccc3nc(N4CCC(C)CC4)sc3c2)CC1` was tested, and the EC50 was > 35 µM (inactive). In the case of `CCCOC(=O)Nc1ccc([As](=O)(O)O)cc1NC(=O)OCCC`, the EC50 was > 35 µM (inactive). `COc1cc2cnc(-c3ccccc3)c(-c3cccc(C(F)(F)F)c3)c2cc1OC` was tested, and the EC50 was > 35 µM (inactive). With `Cc1ccc(-c2csc(N=C(N)N)n2)cc1` the EC50 was > 35 µM (inactive). `Cc1ccccc1OCCOC(=O)c1c(-c2ccccc2)noc1C` was tested, and the EC50 was > 35 µM (inactive). With `COc1cccc(-n2nnnc2S(C)(=O)=O)c1` the EC50 was > 35 µM (inactive). `O=C(CCC1N=C2c3ccccc3N=C(SCC(=O)NCC3CCCO3)N2C1=O)NCc1ccc(F)cc1` (stereo not drawn) was tested, and the EC50 was > 35 µM (inactive). `O=C(O)/C(=C\c1c(C(=O)O)[nH]c2cc(Cl)cc(Cl)c12)c1ccccc1` was tested, and the EC50 was > 35 µM (inactive). In the case of `NC(N)=N/N=C/c1cccc([N+](=O)[O-])c1O`, the EC50 was > 35 µM (inactive). In the case of `CCCCC1CCC(C(=O)N(CC(C)C)c2c(N)n(Cc3ccccc3)c(=O)[nH]c2=O)CC1` (stereo not drawn), the pEC50 was 5.25. With `Nc1nc(CSc2nc3ccccc3[nH]2)nc(N2CCOCC2)n1` the EC50 was > 35 µM (inactive). In the case of `c1ccc(-c2sc3ccccc3c2-c2ccc(OCCN3CCOCC3)cc2)cc1`, the EC50 was > 35 µM (inactive). For `CC(C)N(C(=O)CSc1ccc(S(=O)(=O)N2CCCCC2)cn1)C(C)C`, the EC50 was > 35 µM (inactive). In the case of `C=C(C(=O)Oc1ccccc1C(C)(C)C)c1ccccc1`, the pEC50 was 4.80. For `COc1ccccc1N1CCN(S(=O)(=O)CCNC(=O)c2cc(OC)c(OC)c(OC)c2)CC1`, the EC50 was > 35 µM (inactive). With `O=C(Nc1ccc(Br)cc1C(=O)O)c1ccc2c(c1)C(=O)N(Cc1ccccc1)C2=O` the EC50 was > 35 µM (inactive). `Cc1ccc2c(C(=O)N3CCN(c4ccccc4)CC3)cc(-c3cccnc3)nc2c1C` was tested, and the EC50 was > 35 µM (inactive). For `Cc1ccc(NC(=O)CCN2CCOCC2)cc1C`, the EC50 was > 35 µM (inactive). `CCOC(=O)CSCC(=O)N1N=C(c2cccs2)CC1c1ccc(F)cc1` (stereo not drawn) was tested, and the EC50 was > 35 µM (inactive). For `COc1c(Br)cc([N+](=O)[O-])c(OC)c1C(=O)NC(=O)Nc1nc(C)cc(C)n1`, the EC50 was > 35 µM (inactive). In the case of `CN(C)CCCN(C(=O)c1ccc([N+](=O)[O-])s1)c1nc2cc3c(cc2s1)OCCO3`, the EC50 was > 16 µM (inactive). `O=C(CBr)Nc1c2c(nn1-c1ccccc1)CSC2` was tested, and the EC50 was > 35 µM (inactive). In the case of `Cc1cccc(NC(=O)CSc2nc(C)c(CC(=O)c3ccc(Br)cc3)c(C)c2C#N)c1C`, the EC50 was > 35 µM (inactive). `COCCCn1cc(C(=O)c2cc(OC)ccc2OCC(=O)N2CCCCC2C)cc(C#N)c1=O` (stereo not drawn) was tested, and the EC50 was > 35 µM (inactive). In the case of `Cc1cc(C)n(-c2ccc(NC(=O)C3CCN(Cc4ccc(C)o4)CC3)cc2)n1`, the EC50 was > 35 µM (inactive). In the case of `OC(Cn1cncn1)(Cn1cncn1)c1ccc(F)cc1F`, the EC50 was > 35 µM (inactive). In the case of `Cc1[nH]c(=S)c(C#N)c(C)c1Cc1ccc(Cl)cc1Cl`, the EC50 was > 35 µM (inactive). Work on `COc1ccc(C=C2C=C(C(C)(C)C)C(=O)C(C(C)(C)C)=C2)cc1OC` yielded a pEC50 of 5.24. In the case of `CC(C(=O)N(C)c1ccccc1)N1CCN(C(=O)c2ccccc2)CC1` (stereo not drawn), the EC50 was > 35 µM (inactive). In the case of `Cc1ccc2[nH]c3c(c2c1)CCCC3NC(=O)CCl` (stereo not drawn), the EC50 was > 35 µM (inactive). For `CCn1nnc(NC(=O)Cc2ccc(Cl)cc2)n1`, the EC50 was > 35 µM (inactive). With `CCN(CC)CCN(C(=O)c1cc2c(ccc3ccccc32)oc1=O)c1nc2cc3c(cc2s1)OCCO3` the pEC50 was 5.08. In the case of `O=C(CS(=O)(=O)c1ccccc1)N(CCCN1CCOCC1)c1nc2c(F)cccc2s1`, the EC50 was > 35 µM (inactive). In the case of `COc1cc(OC)cc(C(=O)Nc2ccc(S(=O)(=O)N3CCOCC3)cc2)c1`, the EC50 was > 35 µM (inactive). In the case of `CC1CCN(CCCNC(=O)c2cn(C)c3ccc(S(=O)(=O)N4CCCC4)cc3c2=O)CC1`, the EC50 was > 35 µM (inactive). For `CNC(=S)NC1(C)CCS(=O)(=O)C1` (stereo not drawn), the EC50 was > 35 µM (inactive). For `Cc1ccccc1S(=O)(=O)N(CC(O)CN1CCCCC1)c1ccccc1` (stereo not drawn), the EC50 was > 35 µM (inactive). `Cc1cc(S(=O)(=O)N2CCCOC2CNC(=O)C(=O)NCc2ccco2)ccc1F` (stereo not drawn) was tested, and the EC50 was > 35 µM (inactive). With `COc1ccc(C(=O)COC(=O)Cn2[nH]c(=O)c3ccccc3c2=O)c(OC)c1` the EC50 was > 35 µM (inactive). `CCOC(=O)c1c(C)nc2sc(C(=O)Nc3ccc(C(C)=O)cc3)c(N)c2c1-c1ccc(OC)cc1` was tested, and the EC50 was > 35 µM (inactive). In the case of `CC1Cc2ccccc2N1C(=O)c1ccc2c(c1)nnn2C` (stereo not drawn), the EC50 was > 35 µM (inactive). With `Cc1c(O)c(=O)ccn1Cc1ccccc1` the EC50 was > 35 µM (inactive). With `COc1ccc2c(c1)CCc1c(C(=O)Nc3cc(C)n(Cc4ccc(Cl)cc4)n3)noc1-2` the pEC50 was 4.82. With `CC1=NNC(=O)/C1=C\c1cn(-c2ccccc2)nc1-c1ccccc1` the pEC50 was 4.93. For `O=C(N/N=C\c1ccc(CN(Cc2ccc(Cl)cc2)S(=O)(=O)c2ccccc2)o1)C(=O)Nc1ccc(F)cc1`, the EC50 was > 35 µM (inactive). For `O=[N+]([O-])c1ccc(S(=O)(=O)N/N=C/c2ccsc2)cc1`, the EC50 was > 35 µM (inactive). In the case of `Cc1ccccc1N=C1NC(=O)C(CO)(CO)S1`, the EC50 was > 35 µM (inactive). With `Cc1ccc(NC(=O)c2cc(N3C(=O)C=CC3=O)ccc2N2CCOCC2)cc1Cl` the EC50 was > 35 µM (inactive). In the case of `CC(C)c1nnc(NC(=O)COC(=O)/C=C/c2ccc([N+](=O)[O-])cc2)s1`, the EC50 was > 35 µM (inactive). For `O=C(NCCN1CCOCC1)c1cc(Cl)ccc1Cl`, the EC50 was > 35 µM (inactive). In the case of `COc1cc2sc(-c3ccc(S(C)(=O)=O)cc3)c(C(=O)NCCCCO)c2cc1OC`, the EC50 was > 35 µM (inactive).
